ChEMBL document CHEMBL1201862, “PubChem BioAssay data set” (2004)
Calls of active or inactive are those of the source.

Experiments:
[1] = system: HEK293; test: cells; settings: Homo sapiens;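 note: cells exposed to compound for 14 hours overnight before viability readout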
[2] = target: Tumor necrosis factor (Homo sapiens, UniProt P01375); test: TNFa-triggered NF-kB activation inhibitors, SAR follow-up, cell-based, revised (AID 2337); type: functional
[3] = target: T1, Nucleotide-binding oligomerization domain-containing protein 1 (Homo sapiens, UniProt Q9Y239); test: NOD1 signaling inhibitors, SAR follow-up, revised (AID 2333); type: functional
T1 sequence (Q9Y239 whole entry): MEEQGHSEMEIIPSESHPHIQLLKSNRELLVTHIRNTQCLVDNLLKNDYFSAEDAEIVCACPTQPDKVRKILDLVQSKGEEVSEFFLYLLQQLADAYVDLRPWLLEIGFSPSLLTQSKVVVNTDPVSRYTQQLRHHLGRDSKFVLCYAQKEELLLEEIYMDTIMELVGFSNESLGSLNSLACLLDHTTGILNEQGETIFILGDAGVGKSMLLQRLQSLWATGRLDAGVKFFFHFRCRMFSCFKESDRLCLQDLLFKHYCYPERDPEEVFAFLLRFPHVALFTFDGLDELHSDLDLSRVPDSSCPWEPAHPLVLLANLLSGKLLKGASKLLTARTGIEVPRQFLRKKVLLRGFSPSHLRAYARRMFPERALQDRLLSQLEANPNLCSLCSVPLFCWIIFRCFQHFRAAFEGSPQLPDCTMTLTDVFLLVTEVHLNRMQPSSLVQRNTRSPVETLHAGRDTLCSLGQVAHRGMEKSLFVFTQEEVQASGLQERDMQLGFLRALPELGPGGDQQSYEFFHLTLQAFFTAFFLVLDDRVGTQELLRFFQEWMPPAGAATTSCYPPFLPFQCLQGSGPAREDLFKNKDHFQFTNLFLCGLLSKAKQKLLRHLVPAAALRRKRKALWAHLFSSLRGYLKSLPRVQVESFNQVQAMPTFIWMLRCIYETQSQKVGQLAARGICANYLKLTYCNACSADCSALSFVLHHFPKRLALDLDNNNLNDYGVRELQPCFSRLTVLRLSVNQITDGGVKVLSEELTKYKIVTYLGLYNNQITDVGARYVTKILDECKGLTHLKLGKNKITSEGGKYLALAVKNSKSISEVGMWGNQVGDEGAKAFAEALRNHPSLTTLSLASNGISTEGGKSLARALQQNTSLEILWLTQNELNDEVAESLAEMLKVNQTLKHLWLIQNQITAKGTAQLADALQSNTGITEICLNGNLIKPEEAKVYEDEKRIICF

[4] = target: T2, Kappa-type opioid receptor (Homo sapiens, UniProt P41145); test: kappa opioid receptor blockers, cell-based, luminescence, beta-arrestin, SAR follow-up (AID 2285); type: functional
[5] = target: T3, Polyadenylate-binding protein 1 (Homo sapiens, UniProt P11940); test: PABP1 MLLE–PAM2 interaction inhibitors, dose response, miRNA deadenylation inhibitor project, biochemical, fluorescence polarization, Cy5-PAM2 peptide, secondary (AID 602260); type: functional; settings: read-out: IC50_Mean
[6] = system: Streptococcus sp. 'group A'; test: growth inhibition of control SK(-) GAS strain, dose response, counter-screen for streptokinase expression inhibitor project, luminescence, kanamycin, BacTiterGlo, confirmation (AID 1900); type: functional, organism-based
[7] = target: T2, Kappa-type opioid receptor; test: KOR agonist analogs, imaging readout, SAR follow-up, image-based (AID 2359); type: functional
[8] = target: Beta-galactosidase (Escherichia coli, UniProt Q8VNN2); type: functional
[9] = HepG2 cell cytotoxicity, dose response, cytotoxicity control for Shn3 inhibitor project, CellTiter-Glo, cherry-picked (AID 624134); type: functional, cell-based
[10] = system: Streptococcus; test: Group A Streptococcus viability loss, dose response, counter-screen for streptokinase expression inhibitor project, luminescence, BacTiterGlo (AID 1915); type: functional, organism-based;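 note: potency for reduction of bacterial viability or growth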
[11] = target: T2, Kappa-type opioid receptor; type: functional
[12] = target: T2, Kappa-type opioid receptor; test: KOR antagonists by imaging, SAR follow-up, image-based (AID 2348); type: functional
[13] = target: T4, Mu-type opioid receptor (Homo sapiens, UniProt P35372); test: MOR antagonists, SAR follow-up, image-based (AID 2420); type: functional;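 note: compounds added before stimulation of receptor with agonist DAMGO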
[14] = target: T5, Streptokinase A (Streptococcus pyogenes serotype M1, UniProt P10520); test: S. pyogenes streptokinase expression inhibitors, potency, dose response, plasminogen activation absorbance, OD405 (AID 1914); type: functional, Streptococcus pyogenes M1 GAS;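 note: secreted streptokinase activity via plasminogen activation per viability signal from cell pellet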
T5 sequence (P10520 whole entry): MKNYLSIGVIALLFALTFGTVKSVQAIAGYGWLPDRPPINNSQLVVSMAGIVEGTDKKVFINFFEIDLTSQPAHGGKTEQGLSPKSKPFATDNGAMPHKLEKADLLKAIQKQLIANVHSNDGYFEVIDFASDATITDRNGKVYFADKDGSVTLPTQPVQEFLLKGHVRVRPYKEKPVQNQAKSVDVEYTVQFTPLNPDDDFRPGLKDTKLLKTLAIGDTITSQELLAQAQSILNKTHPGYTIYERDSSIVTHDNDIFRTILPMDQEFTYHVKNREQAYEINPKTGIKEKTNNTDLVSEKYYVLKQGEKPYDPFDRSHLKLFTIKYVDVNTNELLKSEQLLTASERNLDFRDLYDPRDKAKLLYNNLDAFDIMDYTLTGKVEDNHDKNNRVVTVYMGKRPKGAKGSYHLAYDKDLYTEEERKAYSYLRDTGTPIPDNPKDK

[15] = cytotoxicity toward NIH3T3 fibroblasts, dose response, counter-screen, cell-based, ATP luminescence, mouse fibroblasts (AID 2010); type: functional;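 note: cells exposed to compound for about 90 hours before reading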
[16] = control 3'UTR Renilla luciferase suppression, dose response, counter-screen for Shn3 inhibitor project, cell-based, Clone20-Shn3RL, cherry-picked (AID 624133); type: functional
[17] = target: T2, Kappa-type opioid receptor; type: functional; remark: listed apart in the source
[18] = inhibitors of intracellular T. cruzi replication, confirmation, NIH3T3 host cells, beta-gal luminescence (AID 2044); type: functional, cell-based;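 note: intracellular parasites grown in NIH/3T3 mouse fibroblasts as host cells; luminescent beta-galactosidase reporter signal from transgenic T. cruzi replicating inside host cells; inhibitors lower the luminescence signal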
[19] = target: T6, Delta-type opioid receptor (Homo sapiens, UniProt P41143); test: DOR agonists, SAR follow-up, image-based (AID 2370); type: functional
[20] = target: T3, Polyadenylate-binding protein 1; test: PABP1 MLLE–PAM2 binding inhibitor potency, dose response, biochemical, fluorescence polarization, FITC-PAM2 peptide (AID 602259); type: functional; settings: read-out: IC50_Mean
[21] = target: T4, Mu-type opioid receptor; test: MOR agonists by imaging, SAR follow-up, image-based (AID 2352); type: functional
[22] = target: T6, Delta-type opioid receptor; test: DOR antagonists, SAR follow-up, image-based (AID 2357); type: functional
[23] = target: Peroxisome proliferator-activated receptor gamma/Nuclear receptor coactivator 1 (Homo sapiens, UniProt P37231); test: (§1) TR-FRET dose response biochemical High Throughput Screening assay for agonists of the steroid receptor coactivator 1 (SRC-1) recruitment by the peroxisome proliferator-activated receptor gamma (PPAR gamma): non-selective agonists. [Related pubchem assays (depositor defined):AID1300, AID1808, AID504735, AID631]; type: protein assay
[24] = target: Peroxisome proliferator-activated receptor gamma/Nuclear receptor corepressor 2 (Homo sapiens, UniProt P37231+Q9Y618); test: Counterscreen for NR2E3 inverse agonists: TR-FRET-based biochemical high throughput dose response assay to identify inverse agonists of the interaction between peroxisome proliferator-activated receptor gamma (PPARg) and nuclear receptor co-repressor 2 (NCOR2).; type: functional
[25] = target: Peroxisome proliferator-activated receptor gamma/Nuclear receptor coactivator 3 (Homo sapiens, UniProt P37231); test: as §1, with “3 (SRC-3)” for “1 (SRC-1)”, “assays: 1301 (Confirmation screen.), 1048 (Primary screen.)]” for “assays (depositor defined):AID1300, AID1808, AID504735, AID631]”; type: functional
[26] = target: Peroxisome proliferator-activated receptor gamma/Nuclear receptor coactivator 2 (Homo sapiens, UniProt P37231); test: TR-FRET dose response biochemical High Throughput Screening assay for agonists of the steroid receptor coactivator 2 (SRC-2) recruitment by the peroxisome proliferator-activated receptor gamma (PPAR gamma): non-selective agonists. [Related pubchem assays: 1297, 1032 ]; type: functional
[27] = target: Photoreceptor-specific nuclear receptor (Homo sapiens, UniProt Q9Y5X4); test: NR2E3 inverse agonists, dose response, biochemical, TR-FRET (AID 463256); type: functional
[28] = THP-1 cell cytotoxicity, dose response, cytotoxicity control for Vif-APOBEC3G degradation inhibitor project, THP-1 cells (AID 1117359); type: functional; settings: Human immunodeficiency virus 1, THP-1
[29] = target: Lysine-specific demethylase 4C (Homo sapiens, UniProt Q9H3R0); test: GASC-1 (JMJD2C) histone demethylase inhibitors, dose response, biochemical, DELFIA europium, cherry-picked samples (AID 488835); type: functional
[30] = target: T7, Mannose-6-phosphate isomerase (Homo sapiens, UniProt P34949); test: human PMI inhibitors, high substrate, primary screen, biochemical, fluorescence intensity, high mannose 6-phosphate (AID 1220)
T7 sequence (P34949 whole entry): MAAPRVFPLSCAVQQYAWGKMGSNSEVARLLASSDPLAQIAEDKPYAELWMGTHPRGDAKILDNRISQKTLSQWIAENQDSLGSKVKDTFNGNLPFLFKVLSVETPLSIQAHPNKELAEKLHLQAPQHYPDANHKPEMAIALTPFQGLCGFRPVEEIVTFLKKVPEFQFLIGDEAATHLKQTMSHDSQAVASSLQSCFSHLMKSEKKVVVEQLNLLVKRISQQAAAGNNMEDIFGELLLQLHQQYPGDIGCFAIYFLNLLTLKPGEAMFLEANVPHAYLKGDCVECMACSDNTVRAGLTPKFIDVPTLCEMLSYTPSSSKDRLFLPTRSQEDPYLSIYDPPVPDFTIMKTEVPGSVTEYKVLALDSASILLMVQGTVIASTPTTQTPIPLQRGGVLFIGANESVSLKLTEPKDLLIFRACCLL

T2 sequence (P41145 whole entry): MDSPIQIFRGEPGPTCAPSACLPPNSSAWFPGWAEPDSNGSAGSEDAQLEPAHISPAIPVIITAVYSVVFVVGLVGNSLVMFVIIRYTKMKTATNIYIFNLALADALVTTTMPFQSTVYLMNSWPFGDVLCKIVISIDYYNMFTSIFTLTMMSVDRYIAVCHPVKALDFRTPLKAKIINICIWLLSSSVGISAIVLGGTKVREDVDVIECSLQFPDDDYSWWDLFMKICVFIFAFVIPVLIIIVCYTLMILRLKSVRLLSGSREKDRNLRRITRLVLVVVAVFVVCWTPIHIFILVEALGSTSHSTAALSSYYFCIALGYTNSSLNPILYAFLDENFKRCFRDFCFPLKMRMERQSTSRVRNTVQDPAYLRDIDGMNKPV
T6 sequence (P41143 whole entry): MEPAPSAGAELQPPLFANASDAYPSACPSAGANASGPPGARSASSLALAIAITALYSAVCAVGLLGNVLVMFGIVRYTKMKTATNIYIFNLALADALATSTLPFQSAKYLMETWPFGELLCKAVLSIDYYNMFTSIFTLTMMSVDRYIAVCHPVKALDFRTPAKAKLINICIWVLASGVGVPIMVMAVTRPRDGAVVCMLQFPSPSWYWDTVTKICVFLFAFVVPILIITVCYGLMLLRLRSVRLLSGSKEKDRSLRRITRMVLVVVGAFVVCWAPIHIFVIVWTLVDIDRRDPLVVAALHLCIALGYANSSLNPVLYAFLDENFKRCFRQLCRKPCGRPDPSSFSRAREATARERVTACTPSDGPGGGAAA
T3 sequence (P11940 whole entry): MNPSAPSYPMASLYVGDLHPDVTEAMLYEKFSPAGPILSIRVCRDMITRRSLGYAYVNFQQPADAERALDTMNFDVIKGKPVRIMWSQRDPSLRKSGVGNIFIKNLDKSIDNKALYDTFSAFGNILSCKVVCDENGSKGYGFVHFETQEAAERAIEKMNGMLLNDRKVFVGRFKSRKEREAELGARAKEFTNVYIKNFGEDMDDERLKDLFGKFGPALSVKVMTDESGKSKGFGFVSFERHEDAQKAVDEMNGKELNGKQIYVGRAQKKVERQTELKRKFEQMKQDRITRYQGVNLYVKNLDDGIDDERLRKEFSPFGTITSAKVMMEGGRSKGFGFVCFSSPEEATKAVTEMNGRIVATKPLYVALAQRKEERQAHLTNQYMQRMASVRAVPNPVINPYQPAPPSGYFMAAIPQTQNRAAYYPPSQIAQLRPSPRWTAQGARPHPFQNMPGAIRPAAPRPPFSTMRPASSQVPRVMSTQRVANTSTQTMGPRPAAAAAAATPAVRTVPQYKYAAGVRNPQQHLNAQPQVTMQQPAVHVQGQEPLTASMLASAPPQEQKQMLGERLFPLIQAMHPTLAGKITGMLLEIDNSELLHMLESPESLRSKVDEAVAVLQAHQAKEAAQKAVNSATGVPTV
T4 sequence (P35372 whole entry): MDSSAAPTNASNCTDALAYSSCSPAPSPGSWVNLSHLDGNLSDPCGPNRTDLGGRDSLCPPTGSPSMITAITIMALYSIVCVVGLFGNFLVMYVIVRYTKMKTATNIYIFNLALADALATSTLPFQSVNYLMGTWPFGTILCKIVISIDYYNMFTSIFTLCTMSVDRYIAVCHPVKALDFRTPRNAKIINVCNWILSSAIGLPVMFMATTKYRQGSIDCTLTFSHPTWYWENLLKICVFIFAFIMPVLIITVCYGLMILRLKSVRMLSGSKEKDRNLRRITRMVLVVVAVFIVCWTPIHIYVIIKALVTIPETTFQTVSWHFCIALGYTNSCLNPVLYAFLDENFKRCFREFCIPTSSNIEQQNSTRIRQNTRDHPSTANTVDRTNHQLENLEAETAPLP
Sequence of Peroxisome proliferator-activated receptor gamma/Nuclear receptor coactivator 3 (P37231 whole entry): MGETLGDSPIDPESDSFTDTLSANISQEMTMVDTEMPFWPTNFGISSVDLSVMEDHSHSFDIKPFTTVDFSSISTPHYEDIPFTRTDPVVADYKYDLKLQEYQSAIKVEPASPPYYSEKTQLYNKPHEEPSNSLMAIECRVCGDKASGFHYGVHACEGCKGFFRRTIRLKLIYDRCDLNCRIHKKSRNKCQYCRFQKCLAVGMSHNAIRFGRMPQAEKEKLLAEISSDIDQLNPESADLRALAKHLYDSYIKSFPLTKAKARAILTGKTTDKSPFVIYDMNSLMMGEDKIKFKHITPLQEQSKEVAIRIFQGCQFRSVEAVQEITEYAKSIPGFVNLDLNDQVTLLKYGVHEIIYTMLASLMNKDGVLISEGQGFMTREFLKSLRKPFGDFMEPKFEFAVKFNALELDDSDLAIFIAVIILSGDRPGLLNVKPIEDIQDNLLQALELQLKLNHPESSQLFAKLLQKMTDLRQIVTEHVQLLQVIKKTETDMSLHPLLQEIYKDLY
Sequence of Peroxisome proliferator-activated receptor gamma/Nuclear receptor coactivator 3 (Q9Y6Q9 whole entry, further chain): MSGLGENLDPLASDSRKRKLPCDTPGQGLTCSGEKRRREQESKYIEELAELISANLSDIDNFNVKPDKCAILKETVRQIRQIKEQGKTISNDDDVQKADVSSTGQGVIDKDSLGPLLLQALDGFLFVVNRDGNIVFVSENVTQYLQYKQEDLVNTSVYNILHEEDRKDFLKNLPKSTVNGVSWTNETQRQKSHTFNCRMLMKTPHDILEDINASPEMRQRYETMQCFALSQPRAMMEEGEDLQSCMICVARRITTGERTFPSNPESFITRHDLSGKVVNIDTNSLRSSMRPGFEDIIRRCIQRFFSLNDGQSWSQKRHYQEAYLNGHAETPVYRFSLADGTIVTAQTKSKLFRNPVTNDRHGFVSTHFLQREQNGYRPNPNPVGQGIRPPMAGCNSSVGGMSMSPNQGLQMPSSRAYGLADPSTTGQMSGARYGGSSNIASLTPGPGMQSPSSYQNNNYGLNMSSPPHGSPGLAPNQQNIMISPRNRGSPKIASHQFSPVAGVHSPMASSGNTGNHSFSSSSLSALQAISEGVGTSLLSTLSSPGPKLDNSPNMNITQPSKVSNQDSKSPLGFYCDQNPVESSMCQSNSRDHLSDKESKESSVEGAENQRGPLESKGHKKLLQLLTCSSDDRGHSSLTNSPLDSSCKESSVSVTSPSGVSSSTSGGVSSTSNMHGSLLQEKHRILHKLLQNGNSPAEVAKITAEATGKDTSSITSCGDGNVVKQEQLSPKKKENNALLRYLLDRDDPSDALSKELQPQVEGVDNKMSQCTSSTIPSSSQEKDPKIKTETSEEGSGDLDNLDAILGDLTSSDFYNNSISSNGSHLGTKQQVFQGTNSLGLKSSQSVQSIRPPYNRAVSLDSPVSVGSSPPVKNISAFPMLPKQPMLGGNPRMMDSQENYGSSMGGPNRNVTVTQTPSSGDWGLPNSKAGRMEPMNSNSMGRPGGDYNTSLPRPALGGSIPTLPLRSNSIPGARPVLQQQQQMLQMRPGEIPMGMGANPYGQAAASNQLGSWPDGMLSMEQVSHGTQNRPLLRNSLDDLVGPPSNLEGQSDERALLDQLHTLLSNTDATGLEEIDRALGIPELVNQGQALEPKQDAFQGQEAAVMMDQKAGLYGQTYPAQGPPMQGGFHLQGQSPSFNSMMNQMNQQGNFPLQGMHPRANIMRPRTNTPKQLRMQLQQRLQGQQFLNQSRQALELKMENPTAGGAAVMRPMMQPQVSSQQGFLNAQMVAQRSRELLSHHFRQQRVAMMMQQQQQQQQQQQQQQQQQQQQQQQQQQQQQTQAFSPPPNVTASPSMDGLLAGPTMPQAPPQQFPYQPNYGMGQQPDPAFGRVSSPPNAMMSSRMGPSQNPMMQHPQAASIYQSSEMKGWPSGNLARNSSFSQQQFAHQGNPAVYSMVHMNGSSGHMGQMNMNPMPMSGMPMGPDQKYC
Sequence of Photoreceptor-specific nuclear receptor (Q9Y5X4 whole entry): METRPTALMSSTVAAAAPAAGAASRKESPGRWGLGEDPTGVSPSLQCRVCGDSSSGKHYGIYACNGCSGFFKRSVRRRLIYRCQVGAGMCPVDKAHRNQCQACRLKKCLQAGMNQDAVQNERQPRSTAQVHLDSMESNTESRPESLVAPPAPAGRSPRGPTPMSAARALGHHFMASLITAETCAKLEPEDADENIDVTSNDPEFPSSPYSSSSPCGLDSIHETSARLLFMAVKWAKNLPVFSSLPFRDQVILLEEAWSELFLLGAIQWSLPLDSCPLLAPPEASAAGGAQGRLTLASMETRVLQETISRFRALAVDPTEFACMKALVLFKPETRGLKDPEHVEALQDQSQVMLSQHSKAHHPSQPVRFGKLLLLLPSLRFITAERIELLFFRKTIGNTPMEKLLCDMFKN
Sequence of Tumor necrosis factor (P01375 whole entry, the tested form may be a part): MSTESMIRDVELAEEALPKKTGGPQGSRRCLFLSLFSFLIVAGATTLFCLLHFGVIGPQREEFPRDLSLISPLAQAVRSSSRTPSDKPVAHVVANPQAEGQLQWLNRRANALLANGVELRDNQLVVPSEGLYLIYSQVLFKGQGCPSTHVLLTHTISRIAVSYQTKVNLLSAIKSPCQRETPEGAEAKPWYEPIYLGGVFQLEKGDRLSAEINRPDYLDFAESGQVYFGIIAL

Question: With COC(=O)CC1=NN(c2nc3ccccc3s2)C(=O)/C1=C(/C)Nc1ccc(Cl)cc1 as the compound, how does the IC50 [1] read?
Answer: Its IC50 is > 20 µM (inactive).

Question: What about the IC50 [2] of the same compound?
Answer: The IC50 was 0.0369 µM (active).

Question: And the IC50 [3]?
Answer: Its IC50 is < 0.0391 µM (active).

Question: Which results are given for O=C(NC(NC(=S)Nc1c(Cl)cc(Cl)cc1Cl)C(Cl)(Cl)Cl)OCc1ccccc1 (stereo not given)?
Answer: IC50 [4]: 0.846 µM (active); IC50 [5]: > 66 µM (inactive); EC50 [6]: 0.562 µM (active); EC50 [7]: > 32 µM (inactive); EC50 [8]: > 31.5 µM (inactive); AC50 [9]: 18.5 µM (active); EC50 [10]: 39.3 µM (inconclusive); IC50 [11]: 0.63 µM; IC50 [12]: 0.517 µM (active); IC50 [13]: > 32 µM (inactive); EC50 [14]: 1.83 µM (active); EC50 [15]: > 60 µM (not active); AC50 [16]: 2.04 µM (active); IC50 [17]: 1.88 µM (active); EC50 [18]: 1.65 µM (active); EC50 [19]: > 32 µM (inactive); IC50 [20]: > 66 µM (inactive); EC50 [21]: > 32 µM (inactive); IC50 [22]: > 32 µM (inactive)

Question: With COc1ccc(-c2cn3c(C)c(C(=O)Nc4cc(NC(C)=O)ccc4OC)sc3n2)cc1 as the compound, how does the EC50 [23] read?
Answer: The EC50 was 12.9 µM (inactive).

Question: What about the IC50 [24] of the same compound?
Answer: The IC50 was 18 µM (not active).

Question: And the EC50 [25]?
Answer: The EC50 was > 79.4 µM (not active).

Question: And the EC50 [26]?
Answer: Its EC50 is 15 µM (not active).

Question: And the IC50 [27]?
Answer: The IC50 was 23.2 µM (not active).

Question: What does the source list for Oc1cccc(/C=N/NC(=S)NCCN2CCOCC2)c1O?
Answer: CC50 [28]: 17.9 µM (active); AC50 [29]: 4.02 µM (active); IC50 [30]: 23.6 µM (active)
